Reference: US8080539B2, “Method of treating human preeclampsia employing resibufagenin” (Scott and White Healthcare, priority 2004, dated 2011)
Several values for one entry are separate records, joined by “and”; a condition that tells them apart may be missing. Identical values can stand only once.

Experiments:
[1] = tested on: pregnant rats; test: Blood pressure (tail cuff) in pregnant rats made hypertensive with MBG, then treated with RBG; assay type: in vivo, rat
Protocol: In order to confirm the effectiveness of RBG, experiments were performed. In the experiment, a group of four pregnant rats was provided with a blood pressure cuff on their tails in order to determine the base line blood pressure as shown in the table. In order to create hypertension, MBG was administered to the rats.
A dosage of approximately 7 mg per kg of rat weight with the rats weighing in the range of about 200-250 g was employed daily in order to determine the effectiveness of resibufagenin in the treatment of preeclampsia. The dosage was administered intraperitonially and the rats monitored after about three to four days of treatment. The MBG and RBG were administered in a suitable vehicle such as dimethylsulfoxide (DMSO).

[2] = tested on: cellular systems; details: cited from earlier work
[3] = tested on: vessels from preeclamptic rats; test: Perfusion of dissected vessels from preeclamptic rats with marinobufagenin; set-up: species or system rat; details: vessels from preeclamptic rats perfused with marinobufagenin; average
Description: (§1) It is elevated substantially more in preeclamptic rats.

[4] = tested on: vessels from normal pregnant animals or rats; test: Perfusion of dissected vessels from normal pregnant rats with marinobufagenin; set-up: species or system rat; details: vessels from normal pregnant rats perfused with marinobufagenin
Description: as §1

| Structure (SMILES) | change in blood pressure after treatment with RBG ([1]; all four pregnant rats, approximately 7 mg per kg daily intraperitoneally, about three to four days) | BP after RBG ([1]; individual pregnant rats made hypertensive with MBG, RBG approximately 7 mg per kg daily intraperitoneally in DMSO, after about three to four days of treatment) | biological effect in cellular systems [2] | BP after MBG ([1]; individual pregnant rats, tail blood pressure cuff, MBG administered to create hypertension) | constriction of vessels as compared with control [3] | constriction of vessels [4] |
| --- | --- | --- | --- | --- | --- | --- |
| C[C@]12CC[C@H](O)C[C@H]1CC[C@@H]1[C@@H]2CC[C@]2(C)[C@@H](c3ccc(=O)oc3)C[C@H]3O[C@]132 [RBG, Resibufagenin] | substantial reduction in blood pressure | 95 mmHg and 120 mmHg and 110 mmHg and 105 mmHg | no biological effect | – | – | – |
| C[C@]12CC[C@H](O)C[C@@]1(O)CC[C@@H]1[C@@H]2CC[C@]2(C)[C@@H](c3ccc(=O)oc3)C[C@H]3O[C@]132 [MBG, marinobufagenin] | – | – | – | 125 mmHg and 130 mmHg and 115 mmHg and 135 mmHg | about 36% | do not constrict |
